Earlier results in patent US20060139426A1, “Ink, ink set, processing solution, recording method, recording medium, ink tank, and recording device” (Fuji Xerox Co., Ltd., priority 2004, published 2006).

pKa: 2.4
SMILES: O=C(O)c1ccco1 [2-Furancarboxylic acid]
